In patent US20060057071A1, “Paramagnetic complexes with pendant crown compounds showing improved targeting-specificity as MRI contrast agents” (priority 2004, published 2006):
Several values for one entry are separate records, joined by “and”; a condition that tells them apart may be missing. Identical values can stand only once.

Columns and labels:
[1] = Variable-temperature 17O NMR transverse relaxation rate; type: physicochemical; conditions: for water exchange rate kex^298 / TM: 25° C.; for TM: pH 6.9, derived from VT 17O NMR spectroscopy; for exchange lifetime TM of inner-sphere coordinated water: 298 K (25° C.)
From the text: (§1) Measuring the relaxation rates of an abundant nuclear species as a function of the magnetic field over a wide range is called relaxometry. A relaxometry profile is a plot of the nuclear magnetic relaxation rate, usually 1/T1, as a function of the Larmor frequency or the magnetic field. This profile is also called a Nuclear Magnetic Resonance Dispersion (NMRD) profile. Compared with the NMRD profile, the prominent advantage of the ^17O NMR technique is that it allows the accurate determination of the water exchange rate 1/TM. This is a consequence of the oxygen nucleus being closer to the paramagnetic centre when bound in the inner-sphere, wherein the outer-sphere contributions to the relaxation rates are negligibly small. With the help of NMRD profiles, ^17O NMR measurements, and the Soloman-Bloemnergen-Morgan theory, several important parameters, such as TM, TR, TV, Δ^2 and rH, can be measured.
The variable-temperature ^17O NMR measurements were recorded on a JEOL EX-90 (2.1 T) spectrometer that was equipped with a 5 mm probe, by using a D2O external lock. The experimental settings were: spectral width of 10000 Hz, pulse width of 7 μs, acquisition time of 10 ms, 1000 scans, and no sample spinning. Solutions containing 2.6% of ^17O isotope were used. The observed transverse relaxation rates (R2obs^O) were calculated from the signal width at half height.

[2] = 298 K; cited from earlier work
[3] = 1H NMRD profiles (water proton relaxivity); type: physicochemical; conditions: 20 MHz, 25° C., pH 6.9
liver parenchyma = assay: In vivo MRI, hepatic intensity enhancement; design: species or system rat; conditions: for maximal hepatic IE: rat
Method: (§2) To study the MRI contrast and biodistribution behavior of gadolinium complexes […] pendant crown ethers, experiments were performed using male Sprague-Dawley (SD) rats that weighted 150-180 g, and were housed at the Wuhan Institute of Physical and Mathematics of the Chinese Academy of Sciences (Wuhan, Hubei Province, China). All procedures conformed to the institutional guidelines for animal welfare. The rat was injected via the femoral vein with 1 mL saline solution of GdL1 in concentrations of 0.1, 0.033, and 0.02 mM/kg, which are the standard dosage, one third and one fifth of the standard dosage used in clinic currently. MR imaging was performed on a 4.7 T Bruker BIO-SPEC-47/30 MRI scanner with a custom spiral surface coil. The animal was scanned in the prone position in the MRI experiment. […] The total duration of the dynamic scanning lasted up to 400 min after the administration, with an image every 4 min. A water tube was placed in the field of view as a phantom reference. The intensity enhancement (IE) of the region of interest (RI) at time point t is expressed by IE=100% (RI(t)-RI(0))/RI(0) where RI(t) corresponds to the normalized signal intensity as measured at time point, t and RI(0) is the normalized signal intensity precontrast.

MIHA cells [4] = assay: AO/EB staining, laser scanning confocal microscopy; type: cell-based; conditions: 10 μM, 1 h, 2 h, 8 h, 24 h incubation, 37° C.
Method: MIHA cells in the absence (control) and presence of Gd-DOTA (10 μM), Gd-DO3A (10 μM), and GdL1 (10 μM) incubated at 37° C. and 5% CO2, 95% air in a humidified incubator for 1 h, 2 h, 8 h, and 24 h, respectively.
Based on cell morphology and cell membrane integrity, normal, necrotic, and apoptotic cells can be distinguished using laser confocal microscopy. FIG. 22 gives the cell morphology in the absence and presence of Gd-DOTA (10 μM), Gd-DO3A (10 μM), and GdL1 (10 μM) at various time intervals after the incubation. In the absence or presence of the Gd^3+ complexes, the nuclei of the living cells were stained as bright blue spots in the nucleus.

[5] = 1H NMRD profiles (water proton relaxivity); type: physicochemical; conditions: 25° C., pH 6.9, fits of NMRD profile and 17O NMR
From the text: as §1
Water proton nuclear magnetic resonance dispersion NMRD profile is used to record the longitudinal water proton relaxation rates as a function of magnetic fields. The method is, in principle, sensitive to all of the parameters that influence relaxivity. The ^1H NMRD profiles were measured over a continuum of magnetic field strength from 0.00024 to 0.24 T (corresponding to 0.01-10 MHz proton Larmor frequency, 1 T≈41.7 MHz) on a Spinmaster FFC (Stelar, Mede (PV)), which is a fast field-cycling NMR relaxometer installed at the LIMA Laboratory (Bioindustry Park, Ivrea (TO), Italy). The relaxometer worked under complete control with an absolute uncertainty in 1/T1 of ±2%. The NMRD profiles were measured using 1-2 mM solutions of the complexes.

kidney cortex = assay: In vivo MRI, renal intensity enhancement; design: species or system rat; conditions: for maximal renal intensity enhancement (IE): 0.1 mmol/kg (standard dosage), first few minutes after administration
Method: as §2

[6] = cited from earlier work
MIHA cells [7] = assay: In vitro cytotoxicity, MTT / XTT cell proliferation assay; type: cell-based
Method: To further investigate the potential ability of GdL1 as an NMRI contrast agent, its cytotoxicity was measured by MTT assay. The toxicity of GdL1 was determined from the dose-dependence of surviving cells after exposure to this Gd^3+ complex at different time intervals. For comparison, the cytotoxicities of Gd-DOTA and Gd-DO3A were measured under the same conditions.
To evaluate the toxicity of prepared Gd^3+ complexes, a calorimetric assay (XTT-based) for the non-radioactive quantification of cell proliferation was applied. In the cell proliferating process, the added tetrazolium salt XTT was cleaved to a formazan dye by metabolically active cells, and the quantification of cell growth was achieved by the variation of the absorbance at 492 nm. […] Different concentrations of drugs were adjusted by performing serial dilution. The incubation period of the cell culture ranged from 1, 2, 8, and 24 hrs. XTT dye at a concentration of 5 mg/mL (sigma, St. Louis, Mo.) was added, and the plates were incubated for 12 h in a moist chamber at 37° C. The optical density was determined by eluting the dye with dimethyl sulfoxide, and the absorbance was measured at 570 nm. At least three independent experiments were performed.

SMILES	water exchange rate kex^298 [1]	TM [1]	exchange lifetime TM of inner-sphere coordinated water ([1]; 2.12 T)	proton relaxivity r1 (r1p) [3]	time after administration of maximal hepatic IE (liver parenchyma; 0.1 mmol/kg)	maximal hepatic IE (liver parenchyma; 0.1 mmol/kg (standard dosage))	time after administration of maximal hepatic IE (liver parenchyma; 0.033 (0.03) mmol/kg)	maximal hepatic IE (liver parenchyma; 0.033 (0.03) mmol/kg)	cell morphology (apoptotic or necrotic cells) (MIHA cells [4])	D [5]	TR [5]	TV [5]	a [5]	q [5]	r [5]	Δ^2 [5]	maximal renal intensity enhancement (IE) (kidney cortex; rat)	other results
O=C([O-])CN1CCN(CC(=O)[O-])CCN(CC(=O)O)CCN(CC(=O)[O-])CC1.[Gd+3] [Gd-DOTA, reference compound]	4.1e+06 s⁻¹	300 ns	245 ns	4.74 mM⁻¹ s⁻¹	30 to 40 min	70%	30 to 40 min	30%	no obvious apoptotic or necrotic cells were found	2.24E-5 cm^2s^−1	73 ps	7.7 ps	4.0 Å	1	3.1 Å	1.3e+19 s⁻¹	110% and 123%	thermodynamic stability log K [2]: 24.6; hepatic IE (liver parenchyma; 0.02 mmol/kg): no remarkable hepatic IE was detected; time after which hepatic IE faded away (liver parenchyma; 0.1 and 0.033 mmol/kg): 100 min; time after administration at which almost all renal IE was diminished (kidney cortex; 0.1 mmol/kg, kidney cortex): 70 min; r1p ([6]; 20 MHz, 298 K, typical values): 4.74 mM⁻¹ s⁻¹; relaxivity ([6]; 37° C., 20 MHz): 3.4 mM⁻¹ s⁻¹; bound water molecular resident lifetime TM ([6]; 298 K, typical values): about 244 ns
O=C([O-])CN1CCN(CCN2CCOCCOCCOCCOCC2)CCN(CC(=O)[O-])CCN(CC(=O)[O-])CC1.[Gd+3] [GdL1, Gd^3+ Complex of L1]	1.82e+07 s⁻¹	55 ns	55 ns	9.65 mM⁻¹ s⁻¹	90 to 100 min	105%	60 to 100 min	90%	no obvious apoptotic or necrotic cells were found	2.24E-5 cm^2s^−1	146 ps	13 ps	4.0 Å	2	2.98 Å	8e+19 s⁻¹	~200%	temperature at which R2p attains its maximum ([1]; 2.12 T, range 273-340 K): ~270 K; time after administration of maximal hepatic IE (liver parenchyma; 0.02 mmol/kg): 60 min; hepatic IE maintained after 3 h (liver parenchyma; 0.02 mmol/kg, 3 h): over 40%; hepatic IE a few minutes after the injection (liver parenchyma; 0.03 mmol/kg): about 50%; hepatic IE persisting after 320 min (liver parenchyma; 0.03 mmol/kg, 320 min): 50%; time for which high hepatic IE stays on a plateau (liver parenchyma; 0.033 mmol/kg): more than 4 h; hepatic IE level on plateau (liver parenchyma; 0.033 mmol/kg, more than 4 h after administration): > 60%; resident lifetime in hepatic tissues (liver parenchyma; 0.1 mmol/kg): > 4 h; time after administration at which obvious enhancement of the liver was monitored (liver parenchyma; 0.1 mmol/kg): 30 min; time for which strong/high hepatic IE was maintained (liver parenchyma; 0.1 mmol/kg): more than 4 h; time for which strong hepatic intensity enhancement is maintained (liver parenchyma; summary statement): more than four hours; viability of the cells (MIHA cells [7]; 1×10^−5 mol L^−1 to 1×10^−2 mol L^−1, 1 h, 2 h, 8 h, 24 h incubation): above 90%; effect on cell viability / cytotoxicity (MIHA cells [7]; up to 1×10^−2 M, up to 24 h incubation): not affected obviously; resident lifetime in renal tissue (kidney cortex; 0.1 mmol/kg): > 3 h; renal IE preserved 250 minutes after injection (kidney cortex; 0.1 mmol/kg, 250 min): 40%; kidney contrast enhancement two hours after the injection (kidney cortex; 0.1 mmol/kg, two hours): faint contrast enhancement could still be observed; maximal renal IE (kidney cortex; 0.033 (0.03) mmol/kg, one third of standard dose, rat): 123% and 120%; time for which strong renal intensity enhancement is maintained (kidney cortex; summary statement): more than four hours
